Data reported in the Kinase Knowledgebase extract (Sharma et al. 2016).

The compounds below were run against EGFR (UniProt P00533).
EGFR, sequence (P00533 whole entry, looked up): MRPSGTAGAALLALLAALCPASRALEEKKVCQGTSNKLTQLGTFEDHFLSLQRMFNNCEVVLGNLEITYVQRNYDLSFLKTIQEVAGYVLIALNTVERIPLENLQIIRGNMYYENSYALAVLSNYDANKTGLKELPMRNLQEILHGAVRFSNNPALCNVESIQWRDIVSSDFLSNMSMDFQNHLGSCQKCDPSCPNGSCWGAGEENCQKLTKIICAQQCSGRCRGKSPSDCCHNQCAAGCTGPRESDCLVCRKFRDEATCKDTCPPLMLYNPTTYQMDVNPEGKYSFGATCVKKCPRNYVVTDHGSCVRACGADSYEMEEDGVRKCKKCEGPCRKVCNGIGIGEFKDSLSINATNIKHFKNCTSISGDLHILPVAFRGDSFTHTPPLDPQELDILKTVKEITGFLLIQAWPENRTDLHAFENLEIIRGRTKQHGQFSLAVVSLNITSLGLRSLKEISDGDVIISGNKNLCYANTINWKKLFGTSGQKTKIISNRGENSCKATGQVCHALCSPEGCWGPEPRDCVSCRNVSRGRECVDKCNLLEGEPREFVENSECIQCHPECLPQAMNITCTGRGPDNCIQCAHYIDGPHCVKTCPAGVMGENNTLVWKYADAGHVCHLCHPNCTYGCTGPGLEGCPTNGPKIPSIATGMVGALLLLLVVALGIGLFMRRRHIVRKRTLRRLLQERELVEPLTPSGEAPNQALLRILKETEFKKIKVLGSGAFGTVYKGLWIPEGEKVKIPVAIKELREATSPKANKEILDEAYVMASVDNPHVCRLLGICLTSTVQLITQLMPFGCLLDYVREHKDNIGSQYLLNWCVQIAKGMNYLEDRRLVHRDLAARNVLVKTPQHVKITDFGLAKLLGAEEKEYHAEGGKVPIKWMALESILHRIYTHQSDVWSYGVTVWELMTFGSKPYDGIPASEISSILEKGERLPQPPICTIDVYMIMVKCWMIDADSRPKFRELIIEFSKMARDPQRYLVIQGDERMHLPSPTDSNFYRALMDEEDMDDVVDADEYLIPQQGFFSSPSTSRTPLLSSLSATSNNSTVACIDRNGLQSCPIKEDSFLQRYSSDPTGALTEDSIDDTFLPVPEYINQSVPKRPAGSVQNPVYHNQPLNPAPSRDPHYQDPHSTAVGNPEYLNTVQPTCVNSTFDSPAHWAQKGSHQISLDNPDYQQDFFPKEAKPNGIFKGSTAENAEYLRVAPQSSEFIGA

| IC50 [nM] | SMILES |
| --- | --- |
| < 50 | CCN(CC)[C@H]1CO[C@@H]2[C@H]1OC[C@@H]2Oc1cc2ncnc(Nc3ccc(Br)c(Cl)c3)c2cc1OC |
| < 50 | COc1cc2c(Nc3ccc(Br)cc3C)ncnc2cc1OCC1CN(C)CCO1 (stereo unspecified) |
| < 50 | COc1cc2c(Nc3ccc(Cl)c(Cl)c3F)ncnc2cc1OC[C@@H]1CN2CCOC[C@H]2CO1 |
| 50 to 1000 | COc1cc2c(Nc3ccc(Cl)c(Cl)c3)ncnc2cc1OCc1csc(-c2ccc(Cl)cc2)n1 |
| < 50 | COc1cc2c(Nc3ccc(Br)c(Cl)c3)ncnc2cc1O[C@H]1CO[C@@H]2[C@H]1OC[C@@H]2O |
| < 50 | CCN1CCN(C)CC1COc1cc2ncnc(Nc3ccc(Cl)c(Cl)c3)c2cc1OC (stereo unspecified) |
| < 50 | COc1cc2c(Nc3ccc(Br)c(Cl)c3Cl)ncnc2cc1O[C@H]1CO[C@H]2[C@@H]1OC[C@@H]2OC |
| < 50 | COc1cc2c(Nc3ccc(Cl)c(Cl)c3)ncnc2cc1OCC1CN(C(=NC#N)N2CCN(C)CC2)CCO1 (stereo unspecified) |
| < 50 | COc1cc2c(Nc3ccc(Cl)c(Cl)c3)ncnc2cc1OCC1CN(CC2CC2)CCCO1 (stereo unspecified) |
| < 50 | COc1cc2c(Nc3cc(C(F)(F)F)ccc3Cl)ncnc2cc1O[C@@H]1CO[C@@H]2[C@H]1OC[C@H]2F |
| < 50 | COc1cc2c(Nc3ccc(Cl)c(Cl)c3)ncnc2cc1OCCC1CNC(C)(C)CO1 (stereo unspecified) |
| < 50 | COc1cc2c(Nc3ccc(Cl)cc3Cl)ncnc2cc1O[C@@H]1CO[C@@H]2[C@H]1OC[C@H]2F |
| < 50 | COc1cc2c(Nc3ccc(Cl)c(Cl)c3)ncnc2cc1OCC1CN(S(=O)(=O)Cc2ccccc2)CCO1 (stereo unspecified) |
| < 50 | COc1cc2c(Nc3ccc(Cl)c(Cl)c3)ncnc2cc1OCC1CN(CCC2OCCO2)CCO1 (stereo unspecified) |
| < 50 | COc1cc2c(Nc3ccc(Br)c(Cl)c3)ncnc2cc1O[C@H]1CO[C@@H]2[C@H]1OC[C@@H]2N1CCOCC1 |
| < 50 | COc1cc2c(Nc3ccc(Cl)c(Cl)c3F)ncnc2cc1OCC1CN(C)CCO1 (stereo unspecified) |
| < 50 | COc1cc2c(Nc3cc(Cl)ccc3F)ncnc2cc1O[C@@H]1CO[C@@H]2[C@H]1OC[C@H]2F |
| < 50 | COc1cc2c(Nc3ccc(Br)cc3Cl)ncnc2cc1O[C@@H]1CO[C@@H]2[C@H]1OC[C@H]2F |
| < 50 | COc1cc2c(Nc3ccc(Cl)c(Cl)c3)ncnc2cc1OCc1csc(CO)n1 |
| < 50 | COc1cc2c(Nc3ccc(Cl)c(Cl)c3)ncnc2cc1OCCN1CCOCC1 |
| < 50 | COc1cc2c(Nc3cc(F)c(Br)cc3F)ncnc2cc1OCC1CN(C)CCO1 (stereo unspecified) |
| < 50 | COc1cc2c(Nc3ccc(Cl)c(Cl)c3)ncnc2cc1OCC1CN(C)C(C)(C)CO1 (stereo unspecified) |
| < 50 | CC#CCN1CCOC(COc2cc3ncnc(Nc4ccc(Cl)c(Cl)c4)c3cc2OC)C1 (stereo unspecified) |

| IC50 [nM] | SMILES |
| --- | --- |
| < 50 | C#CCN1CCOC(COc2cc3ncnc(Nc4ccc(Cl)c(Cl)c4)c3cc2OC)C1 (stereo unspecified) |
| < 50 | COc1cc2c(Nc3ccc(Cl)c(Cl)c3)ncnc2cc1OCC1CN(CCC(C)C)CCCO1 (stereo unspecified) |
| < 50 | COc1cc2c(Nc3ccc(Cl)c(Cl)c3)ncnc2cc1OCC1CN(C(N)=NC#N)CCO1 (stereo unspecified) |
| < 50 | COc1cc2c(Nc3ccc(Cl)cc3F)ncnc2cc1OCC1CN(C)CCO1 (stereo unspecified) |
| < 50 | COc1cc2c(Nc3ccc(Cl)c(Cl)c3)ncnc2cc1OCc1csc(C2CCCCN2C)n1 (stereo unspecified) |
| < 50 | COc1cc2c(Nc3ccc(Cl)c(Cl)c3)ncnc2cc1OCc1csc(N2CCOCC2)n1 |
| < 50 | COc1cc2c(Nc3cc(Cl)c(Br)cc3F)ncnc2cc1OCC1CO[C@@H]2[C@@H](OC)CO[C@H]12 (stereo partly specified) |
| < 50 | COc1cc2c(Nc3ccc(Cl)c(Cl)c3)ncnc2cc1OCc1csc(N2CCN(C)CC2)n1 |
| < 50 | COc1cc2c(Nc3cc(Cl)c(Br)cc3F)ncnc2cc1OC[C@@H]1CN2CCOC[C@H]2CO1 |
| < 50 | COc1cc2c(Nc3ccc(Cl)c(Cl)c3)ncnc2cc1OCC1CN(CCCC#N)CCO1 (stereo unspecified) |
| < 50 | CCN1CCN(c2nc(COc3cc4ncnc(Nc5ccc(Cl)c(Cl)c5)c4cc3OC)cs2)CC1 |
| < 50 | COc1cc2c(Nc3ccc(Cl)c(Cl)c3)ncnc2cc1OCC1CN(S(C)(=O)=O)CCO1 (stereo unspecified) |
| < 50 | COc1cc2c(Nc3ccc(F)c(C(F)(F)F)c3)ncnc2cc1O[C@@H]1CO[C@@H]2[C@H]1OC[C@H]2F |
| < 50 | CCOC(=O)C(C)N1CCOC(COc2cc3ncnc(Nc4ccc(Cl)c(Cl)c4)c3cc2OC)C1 (stereo unspecified) |
| < 50 | COc1cc2c(Nc3ccc(Cl)c(Cl)c3)ncnc2cc1OCC1CN(C2CCCC2)CCO1 (stereo unspecified) |
| < 50 | COc1cc2c(Nc3ccc(Cl)c(Cl)c3)ncnc2cc1OCC1CN(C)CC(C)(C)O1 (stereo unspecified) |
| < 50 | COc1cc2c(Nc3ccc(Cl)c(Cl)c3)ncnc2cc1OCC1CN(CC2CC2)CCO1 (stereo unspecified) |
| < 50 | CCCCCCCN1CCOC(COc2cc3ncnc(Nc4ccc(Cl)c(Cl)c4)c3cc2OC)C1 (stereo unspecified) |
| < 50 | CC(C)Oc1cc2c(Nc3ccc(Cl)c(Cl)c3)ncnc2cc1OCC1CNCCO1 (stereo unspecified) |
| < 50 | CCN1CCCC(c2nc(COc3cc4ncnc(Nc5ccc(Cl)c(Cl)c5)c4cc3OC)no2)C1 (stereo unspecified) |
| < 50 | COc1cc2c(Nc3ccc(Br)c(Cl)c3)ncnc2cc1O[C@H]1CO[C@H]2[C@@H]1OCC21OCCO1 |
| < 50 | COc1cc2c(Nc3ccc(Cl)c(Cl)c3)ncnc2cc1OCCN1CCCC1 |
| < 50 | COc1cc2c(Nc3ccc(Br)c(Cl)c3)ncnc2cc1O[C@H]1CO[C@@H]2[C@H]1OC[C@@H]2N |

| IC50 [nM] | SMILES |
| --- | --- |
| < 50 | COc1cc2c(Nc3cccc(F)c3F)ncnc2cc1O[C@@H]1CO[C@@H]2[C@H]1OC[C@H]2F |
| < 50 | COc1cc2c(Nc3ccc(Cl)c(Cl)c3)ncnc2cc1OCC1CN(C(C)=O)CCCO1 (stereo unspecified) |
| < 50 | COc1cc2c(Nc3ccc(Cl)c(Cl)c3)ncnc2cc1OCc1csc([C@@H]2CCCN2)n1 |
| < 50 | COc1cc2c(Nc3ccc(F)c(Cl)c3F)ncnc2cc1OCC1CN(C)CCO1 (stereo unspecified) |
| < 50 | COc1cc2c(Nc3ccc(Br)c(Cl)c3)ncnc2cc1O[C@H]1CO[C@@H]2[C@H]1OC[C@@H]2N1CCCCC1 |
| < 50 | COc1cc2c(Nc3ccc(Cl)c(Cl)c3)ncnc2cc1OCC1CN(C/C=C/Br)CCO1 (stereo unspecified) |
| < 50 | COc1cc2c(Nc3ccc(Cl)c(Cl)c3)ncnc2cc1OCc1cscn1 |
| < 50 | COc1cc2c(Nc3ccc(Br)c(Cl)c3)ncnc2cc1O[C@@H]1CO[C@@H]2[C@H]1OC[C@@H]2O |
| < 50 | COc1cc2c(Nc3ccc(Cl)c(Cl)c3)ncnc2cc1OCC1CN(CC(=O)c2ccccc2)CCO1 (stereo unspecified) |
| < 50 | CCO[C@H]1CO[C@H]2[C@@H]1OC[C@@H]2Oc1cc2ncnc(Nc3ccc(Br)c(Cl)c3)c2cc1OC |
| < 50 | CCN1CCCOC(COc2cc3ncnc(Nc4ccc(Cl)c(Cl)c4)c3cc2OC)C1 (stereo unspecified) |
| < 50 | COc1cc2c(Nc3ccc(Cl)c(Cl)c3F)ncnc2cc1OC[C@@H]1CN2CCC[C@H]2C(=O)N1C |
| < 50 | COc1cc2c(Nc3ccc(Cl)c(Cl)c3)ncnc2cc1OCCC1OCCO1 |
| < 50 | COc1cc2c(Nc3cc(Cl)c(Br)cc3F)ncnc2cc1OCC1CN(C)C(C)(C)CO1 (stereo unspecified) |
| < 50 | C=CCN1CCOC(COc2cc3ncnc(Nc4ccc(Cl)c(Cl)c4)c3cc2OC)C1 (stereo unspecified) |
| 50 to 1000 | COc1cc2c(Nc3ccc(Cl)c(Cl)c3)ncnc2cc1OCc1cc(Br)cc(Br)c1 |
| < 50 | COc1cc2c(Nc3ccc(Br)c(Cl)c3)ncnc2cc1OC1CCN(C)C1 (stereo unspecified) |
| < 50 | COc1cc2c(Nc3cc(Cl)c(Cl)c(Cl)c3)ncnc2cc1OCC1CN(C)CCO1 (stereo unspecified) |
| < 50 | COc1cc2c(Nc3cc(F)ccc3F)ncnc2cc1O[C@@H]1CO[C@@H]2[C@H]1OC[C@H]2F |
| < 50 | COc1ccc(-c2nc(COc3cc4ncnc(Nc5ccc(Cl)c(Cl)c5)c4cc3OC)no2)cc1 |
| < 50 | COc1cc2c(Nc3ccc(N4CCN(C)CC4)c(F)c3)ncnc2cc1O[C@H]1CO[C@@H]2[C@H]1OC[C@@H]2F |
| < 50 | COc1cc2c(Nc3ccc(Cl)c(Cl)c3)ncnc2cc1OCc1nc(-c2ccc(O)c(C(N)=O)c2)cs1 |
| < 50 | COc1cc2c(Nc3cc(Cl)ccc3F)ncnc2cc1OCC1CN(C)CCO1 (stereo unspecified) |

| IC50 [nM] | SMILES |
| --- | --- |
| < 50 | COc1cc2c(Nc3ccc(Br)c(Cl)c3)ncnc2cc1O[C@H]1CO[C@@H]2[C@H]1OC[C@@H]2OC(C)=O |
| < 50 | COc1cc2c(Nc3ccc(N4CCN(C)CC4)c(Cl)c3Cl)ncnc2cc1O[C@H]1CO[C@@H]2[C@H]1OC[C@@H]2F |
| < 50 | COc1cc2c(Nc3ccc(Cl)c(Cl)c3)ncnc2cc1OC[C@@H]1CN2CCC[C@@H]2CO1 |
| < 50 | COc1cc2c(Nc3ccc(Cl)c(Cl)c3)ncnc2cc1OCc1nc(-c2cccnc2)cs1 |
| < 50 | COc1cc2c(Nc3ccc(Cl)c(Cl)c3)ncnc2cc1OCc1noc(-c2c(C)noc2C)n1 |
| < 50 | CCC(=O)CN1CCOC(COc2cc3ncnc(Nc4ccc(Cl)c(Cl)c4)c3cc2OC)C1 (stereo unspecified) |
| < 50 | COc1cc2c(Nc3ccc(F)c(Cl)c3F)ncnc2cc1OC[C@H]1CN2CCOC[C@H]2CO1 |
| < 50 | COc1cc2c(Nc3ccc(Cl)c(Cl)c3)ncnc2cc1OC1CO[C@@H]2[C@@H](OC)CO[C@H]12 (stereo partly specified) |
| < 50 | COc1cc2c(Nc3ccc(Br)c(Cl)c3)ncnc2cc1O[C@H]1CO[C@@H]2[C@H]1OC[C@@H]2N(C)C |
| < 50 | COc1cc2c(Nc3ccc(Cl)c(Cl)c3)ncnc2cc1OCC1CN(C(C)C)CCCO1 (stereo unspecified) |
| < 50 | COc1cc2c(Nc3ccc(Br)cc3F)ncnc2cc1O[C@@H]1CO[C@@H]2[C@H]1OC[C@H]2F |
| < 50 | COc1cc2c(Nc3ccc(Cl)c(Cl)c3)ncnc2cc1OCc1csc(C2CCCNC2)n1 (stereo unspecified) |
| < 50 | CCC(C(=O)N1CCOC(COc2cc3ncnc(Nc4ccc(Cl)c(Cl)c4)c3cc2OC)C1)c1ccccc1 (stereo unspecified) |
| < 50 | CC(C)Oc1cc2c(Nc3ccc(Cl)c(Cl)c3)ncnc2cc1OCC1CN(C)CCO1 (stereo unspecified) |
| < 50 | COc1cc2c(Nc3cc(Cl)c(Br)cc3F)ncnc2cc1OC[C@H]1CN2CCOC[C@H]2CO1 |
| < 50 | COc1cc2c(Nc3ccc(Br)c(Cl)c3)ncnc2cc1O[C@@H]1CO[C@@H]2[C@H]1OC[C@@H]2OS(C)(=O)=O |
| < 50 | COc1cc2c(Nc3cccc(Br)c3C)ncnc2cc1OCC1CN(C)CCO1 (stereo unspecified) |
| < 50 | COc1cc2c(Nc3ccc(Cl)c(Cl)c3Cl)ncnc2cc1O[C@@H]1CO[C@@H]2[C@H]1OC[C@H]2F |
| < 50 | COc1cc2c(Nc3cc(Cl)c(Cl)cc3F)ncnc2cc1OC[C@H]1C[C@@H]2CN(C)C[C@@H]2C1 |
| < 50 | COc1cc2c(Nc3ccc(Cl)c(Cl)c3)ncnc2cc1OCCN1C(=O)c2ccccc2C1=O |
| < 50 | COc1cc2c(Nc3ccc(Cl)c(Cl)c3)ncnc2cc1OCC1CN(C(=NC#N)N2CCCCC2)CCO1 (stereo unspecified) |
| < 50 | COc1cc2c(Nc3ccc(Cl)c(Cl)c3)ncnc2cc1OCC1CN(C)CCN1C (stereo unspecified) |
